Earlier results as cited in PubChem BioAssay AID1259409 (Chemical Carcinogenesis Research Information System (CCRIS), 2018).

Tested on: rodent chemically induced tumor inhibition, incidence and multiplicity
Assay: CCRIS tumor inhibitor studies
Settings: Dose [Inhibitor]: 0

SMILES	tumour outcome (control, treated, inhibition, significance) (Carcinogen: 7,12-DIMETHYLBENZ[A]ANTHRACENE, 57-97-6, 200 UG IN 0.2 ML ACETONE 3/WK 1 HR BEFORE PROMOTER ON 2 D AND ALONE ON 1 D BEGINNING 18 D POST CARCINOGEN AND CONTINU, Route [Inhibitor]: DERMAL, Species: MOUSE, Strain/Sex: CD-1/FEMALE, Target Tissue: Type of Lesion: SKIN: PAPILLOMA, Dose [Carcinogen]: 200 NMOL IN 0.2 ML ACETONE ONCE AND MICE KEPT IN DARKENED ROOM FOR 48 HR POST INITIATION, Promoter: 12-O-TETRADECANOYLPHORBOL-13-ACETATE, 16561-29-8)	tumour outcome (control, treated, inhibition, significance) (Carcinogen: AZOXYMETHANE, 25843-45-2, 200 PPM IN DIET BEGINNING PRIOR TO CARCINOGEN DOSE AND CONTINUING FOR DURATION OF STUDY (STUDY DURATION: 54 WK), Route [Inhibitor]: ORAL, Species: RAT, Strain/Sex: F344/MALE, Target Tissue: Type of Lesion: COLON: ADENOCARCINOMA, Dose [Carcinogen]: 15 MG/KG 1/WK FOR 2 WK, Promoter: NONE USED)	tumour outcome (control, treated, inhibition, significance) (Carcinogen: AZOXYMETHANE, 25843-45-2, 200 PPM IN DIET BEGINNING PRIOR TO CARCINOGEN DOSE AND CONTINUING FOR DURATION OF STUDY (STUDY DURATION: 54 WK), Route [Inhibitor]: ORAL, Species: RAT, Strain/Sex: F344/MALE, Target Tissue: Type of Lesion: COLON: ADENOMA, Dose [Carcinogen]: 15 MG/KG 1/WK FOR 2 WK, Promoter: NONE USED)	tumour outcome (control, treated, inhibition, significance) (Carcinogen: AZOXYMETHANE, 25843-45-2, 200 PPM IN DIET BEGINNING PRIOR TO CARCINOGEN DOSE AND CONTINUING FOR DURATION OF STUDY (STUDY DURATION: 54 WK), Route [Inhibitor]: ORAL, Species: RAT, Strain/Sex: F344/MALE, Target Tissue: Type of Lesion: SMALL INTESTINE: ADENOCARCINOMA, Dose [Carcinogen]: 15 MG/KG 1/WK FOR 2 WK, Promoter: NONE USED)	tumour outcome (control, treated, inhibition, significance) (Carcinogen: AZOXYMETHANE, 25843-45-2, 200 PPM IN DIET BEGINNING PRIOR TO CARCINOGEN DOSE AND CONTINUING FOR STUDY DURATION (STUDY DURATION: 54 WK), Route [Inhibitor]: ORAL, Species: RAT, Strain/Sex: F344/MALE, Target Tissue: Type of Lesion: SMALL INTESTINE: ADENOMA, Dose [Carcinogen]: 15 MG/KG 1/WK FOR 2 WK, Promoter: NONE USED)	tumour outcome (control, treated, inhibition, significance) (Carcinogen: AZOXYMETHANE, 25843-45-2, 400 PPM IN DIET BEGINNING PRIOR TO CARCINOGEN DOSE AND CONTINUING FOR DURATION OF STUDY (STUDY DURATION: 54 WK), Route [Inhibitor]: ORAL, Species: RAT, Strain/Sex: F344/MALE, Target Tissue: Type of Lesion: COLON: ADENOCARCINOMA, Dose [Carcinogen]: 15 MG/KG 1/WK FOR 2 WK, Promoter: NONE USED)	tumour outcome (control, treated, inhibition, significance) (Carcinogen: AZOXYMETHANE, 25843-45-2, 400 PPM IN DIET BEGINNING PRIOR TO CARCINOGEN DOSE AND CONTINUING FOR DURATION OF STUDY (STUDY DURATION: 54 WK), Route [Inhibitor]: ORAL, Species: RAT, Strain/Sex: F344/MALE, Target Tissue: Type of Lesion: COLON: ADENOMA, Dose [Carcinogen]: 15 MG/KG 1/WK FOR 2 WK, Promoter: NONE USED)	tumour outcome (control, treated, inhibition, significance) (Carcinogen: AZOXYMETHANE, 25843-45-2, 400 PPM IN DIET BEGINNING PRIOR TO CARCINOGEN DOSE AND CONTINUING FOR DURATION OF STUDY (STUDY DURATION: 54 WK), Route [Inhibitor]: ORAL, Species: RAT, Strain/Sex: F344/MALE, Target Tissue: Type of Lesion: SMALL INTESTINE: ADENOCARCINOMA, Dose [Carcinogen]: 15 MG/KG 1/WK FOR 2 WK, Promoter: NONE USED)	tumour outcome (control, treated, inhibition, significance) (Carcinogen: AZOXYMETHANE, 25843-45-2, 400 PPM IN DIET BEGINNING PRIOR TO CARCINOGEN DOSE AND CONTINUING FOR DURATION OF STUDY (STUDY DURATION: 54 WK), Route [Inhibitor]: ORAL, Species: RAT, Strain/Sex: F344/MALE, Target Tissue: Type of Lesion: SMALL INTESTINE: ADENOMA, Dose [Carcinogen]: 15 MG/KG 1/WK FOR 2 WK, Promoter: NONE USED)	tumour outcome (control, treated, inhibition, significance) (Carcinogen: N-METHYL-N-NITROSOUREA, 684-93-5, 0.1% IN DIET FOR DURATION OF STUDY BEGINNING 1 WK PRIOR TO CARCINOGEN DOSE (STUDY DURATION: 187 D), Route [Inhibitor]: ORAL, Species: RAT, Strain/Sex: SPRAGUE-DAWLEY/FEMALE, Target Tissue: Type of Lesion: MAMMARY GLAND: CARCINOMA, Dose [Carcinogen]: 50 MG/KG ONCE AT 50 D OF AGE, Promoter: NONE USED)	tumour outcome (control, treated, inhibition, significance) (Carcinogen: N-METHYL-N-NITROSOUREA, 684-93-5, 0.2% IN DIET FOR 2 WK BEGINNING 1 WK PRIOR TO CARCINOGEN DOSE (STUDY DURATION: 187 D), Route [Inhibitor]: ORAL, Species: RAT, Strain/Sex: SPRAGUE-DAWLEY/FEMALE, Target Tissue: Type of Lesion: MAMMARY GLAND: CARCINOMA, Dose [Carcinogen]: 50 MG/KG ONCE AT 50 D OF AGE, Promoter: NONE USED)	tumour outcome (control, treated, inhibition, significance) (Carcinogen: N-METHYL-N-NITROSOUREA, 684-93-5, 0.2% IN DIET FOR DURATION OF STUDY BEGINNING 1 WK POST CARCINOGEN DOSE (STUDY DURATION: 180 D), Route [Inhibitor]: ORAL, Species: RAT, Strain/Sex: SPRAGUE-DAWLEY/FEMALE, Target Tissue: Type of Lesion: MAMMARY GLAND: CARCINOMA, Dose [Carcinogen]: 50 MG/KG ONCE AT 50 D OF AGE, Promoter: NONE USED)	tumour outcome (control, treated, inhibition, significance) (Carcinogen: N-METHYL-N-NITROSOUREA, 684-93-5, 0.2% IN DIET FOR DURATION OF STUDY BEGINNING 1 WK PRIOR TO CARCINOGEN DOSE (STUDY DURATION: 187 D), Route [Inhibitor]: ORAL, Species: RAT, Strain/Sex: SPRAGUE-DAWLEY/FEMALE, Target Tissue: Type of Lesion: MAMMARY GLAND: CARCINOMA, Dose [Carcinogen]: 50 MG/KG ONCE AT 50 D OF AGE, Promoter: NONE USED)	tumour outcome (control, treated, inhibition, significance) (Carcinogen: METHYLCHOLANTHRENE, 56-49-5, 0.5 MG/KG BW BY GAVAGE 3/WK FOR 8 WK (STUDY DURATION: 180 D), Route [Inhibitor]: ORAL, Species: MOUSE, Strain/Sex: SWISS/MALE, Target Tissue: Type of Lesion: SKIN: SARCOMA, Dose [Carcinogen]: 200 UG/ANIMAL ONCE 5 D POST INHIBITOR TREATMENT)	tumour outcome (control, treated, inhibition, significance) (Carcinogen: METHYLCHOLANTHRENE, 56-49-5, 2.5 MG/KG BW BY GAVAGE 3/WK FOR 8 WK (STUDY DURATION: 180 D), Route [Inhibitor]: ORAL, Species: MOUSE, Strain/Sex: SWISS/MALE, Target Tissue: Type of Lesion: SKIN: SARCOMA, Dose [Carcinogen]: 200 UG/ANIMAL ONCE 5 D POST INHIBITOR TREATMENT)	tumour outcome (control, treated, inhibition, significance) (Carcinogen: METHYLCHOLANTHRENE, 56-49-5, 5 MG/KG BW BY GAVAGE 3/WK FOR 8 WK (STUDY DURATION: 180 D), Route [Inhibitor]: ORAL, Species: MOUSE, Strain/Sex: SWISS/MALE, Target Tissue: Type of Lesion: SKIN: SARCOMA, Dose [Carcinogen]: 200 UG/ANIMAL ONCE 5 D POST INHIBITOR TREATMENT)	tumour outcome (control, treated, inhibition, significance) (Carcinogen: N,N-DIETHYLNITROSAMINE, 55-18-5, 10 MG/KG BW BY GAVAGE 5 D/WK FOR 141 D (STUDY DURATION: 30 WK), Route [Inhibitor]: ORAL, Species: RAT, Strain/Sex: WISTAR/FEMALE, Target Tissue: Type of Lesion: LIVER: TUMOR, Dose [Carcinogen]: 0.02% IN DISTILLED WATER BY GAVAGE 5 D/WK FOR 20 WK BEGINNING 1 D POST INHIBITOR FIRST DOSE)	tumour outcome (control, treated, inhibition, significance) (Carcinogen: N,N-DIETHYLNITROSAMINE, 55-18-5, 25 MG/KG BW BY GAVAGE 5 D/WK FOR 141 D (STUDY DURATION: 30 WK), Route [Inhibitor]: ORAL, Species: RAT, Strain/Sex: WISTAR/FEMALE, Target Tissue: Type of Lesion: LIVER: TUMOR, Dose [Carcinogen]: 0.02% IN DISTILLED WATER BY GAVAGE 5 D/WK FOR 20 WK BEGINNING 1 D POST INHIBITOR FIRST DOSE)	tumour outcome (control, treated, inhibition, significance) (Carcinogen: N,N-DIETHYLNITROSAMINE, 55-18-5, 50 MG/KG BW BY GAVAGE 5 D/WK FOR 141 D (STUDY DURATION: 30 WK), Route [Inhibitor]: ORAL, Species: RAT, Strain/Sex: WISTAR/FEMALE, Target Tissue: Type of Lesion: LIVER: TUMOR, Dose [Carcinogen]: 0.02% IN DISTILLED WATER BY GAVAGE 5 D/WK FOR 20 WK BEGINNING 1 D POST INHIBITOR FIRST DOSE)
C[C@]12CCCCC1=CC[C@@H]1[C@@H]2CC[C@]2(C)C(=O)[C@H](F)C[C@@H]12	92%, 70%, 24%, not calculated	72%, 50%, 31%, p<0.05	14%, 8%, 43%, not calculated	50%, 28%, 44%, not calculated	3%, 0%, 100%, not calculated	72%, 61%, 15%, not calculated	14%, 6%, 57%, not calculated	50%, 17%, 66%, p<0.01	3%, 0%, 100%, not calculated	100%, 100%, 0%, not significant	100%, 100%, 0%, not significant	100%, 95%, 5%, not significant	100%, 100%, 0%, not significant						
COc1ccc2cc3[n+](cc2c1OC)CCc1cc2c(cc1-3)OCO2														100%, 40%, 60%, not calculated	100%, 47%, 53%, not calculated	100%, 67%, 33%, not calculated	100%, 100%, 0%, not significant	100%, 50%, 50%, not significant	100%, 50%, 50%, not significant
